These results are taken from patent US10988462B2, “Pyrazole compounds substituted with heteroaryl and pharmaceutical use thereof” (Japan Tobacco Inc., priority 2018, dated 2021).

Structures are written as SMILES.

Sequence of human SGLT1 (P13866 whole entry): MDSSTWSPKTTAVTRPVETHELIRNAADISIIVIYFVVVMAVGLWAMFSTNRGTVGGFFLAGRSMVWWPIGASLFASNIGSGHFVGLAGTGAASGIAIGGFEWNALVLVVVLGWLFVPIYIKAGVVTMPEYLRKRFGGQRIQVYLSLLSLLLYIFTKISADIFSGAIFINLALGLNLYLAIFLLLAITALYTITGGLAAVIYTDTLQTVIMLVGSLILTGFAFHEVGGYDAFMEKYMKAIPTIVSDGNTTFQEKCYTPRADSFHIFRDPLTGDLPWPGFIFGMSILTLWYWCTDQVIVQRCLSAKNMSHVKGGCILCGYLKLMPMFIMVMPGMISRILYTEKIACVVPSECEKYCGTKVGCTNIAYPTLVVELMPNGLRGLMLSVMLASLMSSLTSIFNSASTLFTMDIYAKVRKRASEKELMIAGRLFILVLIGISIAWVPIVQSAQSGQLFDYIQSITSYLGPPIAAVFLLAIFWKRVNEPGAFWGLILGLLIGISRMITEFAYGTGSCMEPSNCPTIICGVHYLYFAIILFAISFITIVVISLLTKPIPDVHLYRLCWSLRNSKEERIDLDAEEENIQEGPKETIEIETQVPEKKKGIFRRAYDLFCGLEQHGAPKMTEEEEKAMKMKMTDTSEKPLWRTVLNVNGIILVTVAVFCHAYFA

For the first data set, the system named is Salmonella typhimurium TA1535. The experiment in a line: Ames test (reverse mutation test), pre-incubation method, strain TA1535. The following applies: TA1535; in the absence of S9 mix. In kind it is cell-based. How it is done:
(§1) Ames Test (Reverse Mutation Test)
(§2) Metabolites 1 to 3 and Metabolites A to E were each tested herein. The purpose of this test is to evaluate the potential of each metabolite to induce reverse mutations in the standard strains of Salmonella typhimurium (TA98, TA1537, TA100, and TA1535) and Escherichia coli (WP2uvrA), in either the presence or absence of a rat liver metabolic activation system (S9 mix).
(§3) The solvent used herein was dimethyl sulfoxide (DMSO, 100 μL/plate).
(§4) The test was performed by the pre-incubation method with or without S9 mix. When the test was performed without S9 mix, sodium phosphate buffer solution (pH 7.4) was added.
(§5) 0.5 mL of S9 mix or 0.5 mL of 0.1 mol/L sodium phosphate buffer solution (pH 7.4), and 0.1 mL of the bacterial culture solution were added to a test tube containing 0.1 mL of the negative control formulation (DMSO alone), the metabolite, or the positive control formulation. The mixtures were pre-incubated at 37° C. for 20 minutes while shaking. After the pre-incubation period, 2 mL of top agar were added and the mixtures were vortex-mixed and seeded onto plates. Two plates per treatment were used. Each plate was incubated at 37±1° C. for 48 hours or more and the revertant colonies were counted. The mean number of revertant colonies for each treatment plate was then calculated. The presence or absence of growth inhibition due to any antibacterial effect of the test article and precipitation of the test article was observed grossly or under a stereomicroscope. […] Evaluation was based on mean values with no statistical comparisons being used.
On to `Nc1cc(-c2cccc(OC(F)(F)F)c2)n(-c2cccc(F)c2)n1` [Metabolite D, reference compound], for which the “potential to induce reverse mutations” value is “had potential to induce reverse mutations”.

For another data set, the target named is human SGLT1 (Homo sapiens (Human), UniProt P13866). The experiment in a line: SGLT1 inhibitory activity: intracellular uptake of 14C-AMG in human SGLT1-stably-expressing CHO-K1 cell line. In kind it is cell-based. The following applies: human SGLT1-stably-expressing CHO-K1 cells, 14C-AMG uptake; read-out: hSGLT1 IC50. How it is done:
SGLT1 inhibitory activities of test compounds (IC50 values) were calculated based on the amount of intracellular uptake of labelled α-methyl-D-glucopyranoside (^14C-AMG) transported by SGLT1.
1) Formation of Human SGLT1-Expressing Plasmid
A DNA fragment containing human SGLT1 was amplified by PCR (Polymerase Chain Reaction) using pCMV6-hSGLT1 (OriGene) as a template. In the human SGLT1, NheI recognition and cleavage sequence was added to the upstream of Kozac consensus sequence derived from a vector, and a stop codon, TAG, and SalI recognition and cleavage sequence were added to the immediate downstream of the protein-translating region of human SGLT1. The purified DNA fragment was cleaved by restriction enzymes NheI and SalI, followed by ligation with pcDNA3.1 (+) which was cleaved by NheI and XhoI, thereby forming human SGLT1-expressing plasmid, pcDNA-hSGLT1. The nucleic acid sequence of human SGLT1 inserted into a vector was completely identical to the protein-translated region of human SGLT1 sequence (Accession number NM_000343) registered in GenBank, and the sequence of the portion connected to the vector was as expected.
2) Establishment of Human SGLT1-Stably-Expressing Cell Lines
Human SGLT-expressing plasmid, pcDNA-hSGLT1, was transfected into each CHO-K1 cell by Lipofectamine 2000 (Invitrogen) and cultured in the presence of G418 (Nacalai Tesque) to select drug-resistant cell lines. A cell line having the highest ratio (S/B ratio) of the amount of intracellular uptake of ^14C-AMG per cell to the amount of intracellular uptake of ^14C-AMG after treatment with a SGLT inhibitor, phlorizin, was selected as a human SGLT1-stably-expressing cell line from the drug-resistant cell lines.
3) Assessment of SGLT1 Inhibitory Activity
Human SGLT1-stably-expressing cell lines were seeded at 5×10^4 cells/well on BioCoat™ Poly-D-Lysine 96 well plate with Lid (Becton, Dickinson and Company) and cultured at 37° C. under 5% CO2 overnight. The medium was replaced with 100 μL/well of Na(−) buffer (140 mM choline chloride, 2 mM KCl, 1 mM MgCl2, 1 mM CaCl2, 10 mM HEPES, 5 mM Tris, pH 7.4), and then the mixture was let stand at 37° C. under 5% CO2 for 20 minutes. After removal of Na(−) buffer, thereto was added 40 μL/well of a test compound solution prepared with Na(+) buffer (140 mM NaCl, 2 mM KCl, 1 mM MgCl2, 1 mM CaCl2, 10 mM HEPES, 5 mM Tris, pH 7.4) comprising BSA. Then, thereto was added 40 μL/well of Na(+) buffer comprising 8 kBq of ^14C-AMG and 2 mM AMG, and the mixture was mixed well. For a blank, 40 μL/well of Na(−) buffer comprising BSA was added, and in addition, 40 μL/well of Na(−) buffer comprising 8 kBq of ^14C-AMG and 2 mM AMG was added, and the mixture was mixed well. After incubation by being let stand for 1 hour at 37° C. under 5% CO2, cells were washed twice with 100 μL/well of ice-cooled wash buffer (100 mM AMG, 140 mM choline chloride, 2 mM KCl, 1 mM MgCl2, 1 mM CaCl2, 10 mM HEPES, 5 mM Tris, pH 7.4) to terminate the reaction. A cell lysate was prepared by addition of 50 μL/well of 0.2N aqueous NaOH solution. In the assessment for the uptake ability of ^14C-AMG, the total amount of the cell lysate was transferred to OptiPlate 96 (Perkin-Elmer) with 100 μL/well of MicroScint-40 (Perkin-Elmer) dispensed and ^14C of CPM was measured with TOPCOUNT NXT (Perkin-Elmer).
Data was calculated by deducting the average value of CPM for blank well from the average value of CPM for each well treated. An inhibition rate for each test compound in each concentration was calculated from the following equation: [(A−B)/A]×100 wherein A is data for a solvent control and B is data for treatment with each test compound.
As to `C[C@H]1C(=O)NC[C@@H]1C(=O)Nc1cc(-c2cc(F)cc(OC(C)(C)C(F)(F)F)c2)n(-c2cnccn2)n1` [Example 23], the IC50 worked out at 11 nM.

Regarding `C[C@H]1C(=O)NC[C@@H]1C(=O)Nc1cc(-c2cc(F)cc(OC(F)(F)F)c2)n(-c2cncc(F)c2)n1` [Example 2, (3R,4R)—N-(5-(3-fluoro-5-(trifluoromethoxy)phenyl)-1-(5-fluoropyridin-3-yl)-1H-pyrazol-3-yl)-4-methyl-5-oxopyrrolidine-3-carboxamide], the IC50 was determined as 14 nM.

For `C[C@H]1C(=O)NC[C@@H]1C(=O)Nc1cc(-c2cc(F)cc(OC(C)(C)C(F)(F)F)c2)n(-c2ccc(C(F)(F)F)cn2)n1` [Example 24], the IC50 was determined as 5.3 nM.

With `C[C@H]1C(=O)NC[C@@H]1C(=O)Nc1cc(-c2cc(F)cc(OC(C)(C)C(F)(F)F)c2)n(-c2cccnc2C(F)(F)F)n1` [Example 12], the IC50 turned out to be 4.3 nM.

Regarding `C[C@H]1C(=O)NC[C@@H]1C(=O)Nc1cc(-c2cc(F)cc(OC(C)(C)C(F)(F)F)c2)n(-c2nccc(C(F)(F)F)n2)n1` [Example 16], the IC50 worked out at 83 nM.

As for `C[C@H]1C(=O)NC[C@@H]1C(=O)Nc1cc(-c2cc(F)cc(OC(C)(C)C(F)(F)F)c2)n(-c2cncc(F)c2)n1` [Example 21], the IC50 came out at 1.2 nM.

In the case of `C[C@H]1C(=O)NC[C@@H]1C(=O)Nc1cc(-c2cc(F)cc(OC(C)(C)C)c2)n(-c2cnccn2)n1` [Example 4], the IC50 is 23 nM.

For the compound `C[C@H]1C(=O)NC[C@@H]1C(=O)Nc1cc(-c2cc(F)cc(OCC(F)(F)F)c2)n(-c2cncc(Cl)c2)n1` [Example 35], the IC50 amounted to 4.6 nM.

With `C[C@H]1C(=O)NC[C@@H]1C(=O)Nc1cc(-c2cc(F)cc(OC(C)(C)C(F)(F)F)c2)n(-c2ccnc(C(F)(F)F)n2)n1` [Example 9], the IC50 is 73 nM.

Turning to `C[C@H]1C(=O)NC[C@@H]1C(=O)Nc1cc(-c2cc(F)cc(OC(C)(C)C(F)(F)F)c2)n(-c2cncc(Cl)c2)n1` [Example 17], the IC50 is 1.3 nM.

Consider `C[C@H]1C(=O)NC[C@@H]1C(=O)Nc1cc(-c2cc(F)cc(OCC(F)(F)F)c2)n(-c2cnc(C(F)(F)F)nc2)n1` [Example 25], for which the IC50 was found to be 5.7 nM.

As to `C[C@H]1C(=O)NC[C@@H]1C(=O)Nc1cc(-c2cc(F)cc(OC(F)(F)F)c2)n(-c2cnc(C(F)(F)F)nc2)n1` [Example 27], the IC50 was found to be 30 nM.

Regarding `C[C@H]1C(=O)NC[C@@H]1C(=O)Nc1cc(-c2cc(F)cc(OC(C)(C)C(F)(F)F)c2)n(-c2nccnc2C(F)(F)F)n1` [Example 19], the IC50 came to 29 nM.

In the case of `C[C@H]1C(=O)NC[C@@H]1C(=O)Nc1cc(-c2cc(F)cc(OC(F)(F)F)c2)n(-c2cncnc2)n1` [Example 29], the IC50 stood at 52 nM.

For the compound `C[C@H]1C(=O)NC[C@@H]1C(=O)Nc1cc(-c2cc(F)cc(OC(C)(C)C(F)(F)F)c2)n(-c2cnc(N(C)C)nc2)n1` [Example 37], the 50% inhibitory concentration (IC50) was 0.98 nM.

On to `C[C@H]1C(=O)NC[C@@H]1C(=O)Nc1cc(-c2cc(F)cc(OCC(F)(F)F)c2)n(-c2cncc(F)c2)n1` [Example 34], for which the IC50 was 9.8 nM.

For `C[C@H]1C(=O)NC[C@@H]1C(=O)Nc1cc(-c2cc(F)cc(OCC(F)(F)F)c2)n(-c2ccc(C(F)(F)F)nc2)n1` [Example 33], the IC50 came to 5.9 nM.

The next data set deals with Salmonella typhimurium TA100. As to the kind of experiment: Ames test (reverse mutation test), pre-incubation method, strain TA100. In kind it is cell-based. Conditions: TA100; in the presence of S9 mix. How it is done: as §1, §2, §3, §4, §5
Take `Cc1cccc(-n2nc(N)cc2-c2cccc(OC(F)(F)F)c2)c1` [Metabolite E, reference compound]: the “potential to induce reverse mutations” value was “had potential to induce reverse mutations”.

With `Nc1cc(-c2cccc(OC(F)(F)F)c2)n(-c2cccc(F)c2)n1` [Metabolite D, reference compound], the “potential to induce reverse mutations” value was “had potential to induce reverse mutations”.

In a further data set the test system is Salmonella typhimurium TA98. The experiment in a line: Ames test (reverse mutation test), pre-incubation method, strain TA98. The following applies: TA98; in the presence of S9 mix. As for the experimental part:
as §1, §2, §3, §4, §5
Turning to `Cc1cccc(-n2nc(N)cc2-c2cccc(OC(F)(F)F)c2)c1` [Metabolite E, reference compound], the “potential to induce reverse mutations” value was “had potential to induce reverse mutations”.

`CC(C)(OCc1cc(F)cc(-c2cc(N)nn2-c2ccc(F)cc2)c1)C(F)(F)F` [Metabolite A, reference compound]: the “potential to induce reverse mutations” value is reported as “had potential to induce reverse mutations”.

The subject of a further data set is Salmonella typhimurium TA1537. The experiment in a line: Ames test (reverse mutation test), pre-incubation method, strain TA1537. In kind it is cell-based. The following applies: TA1537; in the presence of S9 mix. How it is done:
as §1, §2, §3, §4, §5
`Cc1cccc(-n2nc(N)cc2-c2cccc(OC(F)(F)F)c2)c1` [Metabolite E, reference compound]: the “potential to induce reverse mutations” value was “had potential to induce reverse mutations”.

With `CC(C)(OCc1cc(F)cc(-c2cc(N)nn2-c2ccc(F)cc2)c1)C(F)(F)F` [Metabolite A, reference compound], the “potential to induce reverse mutations” value is recorded as “had potential to induce reverse mutations”.
